{"source": "patent US12599582B2", "about": "“Pyrrole compounds” (ALIGOS THERAPEUTICS, INC., priority 2019, dated 2026)"}
{"tested_on": "HBV", "experiment": "HBV-DNA Antiviral Assay Using HepG2.2.15 Cells (extracellular HBV DNA by qPCR)", "type": "cell-based, hepatitis B virus (HBV)", "conditions": "HBV DNA inhibition, HepG2.2.15 cells, extracellular HBV DNA by qPCR; read-out: EC50", "experimental": "(§1) The following assay procedure describes the HBV antiviral assay. This assay uses HepG2.2.15 cells, which have been transfected with HBV genome, and extracellular HBV DNA quantification as endpoint. Cell viability is assessed in parallel by measuring the intracellular ATP content using the CellTiter-Glo® reagent from Promega.\n(§2) On day 0, HepG2.2.15 cells were seeded in 96-well plates at a density of 6.0×10^4 cells/well (0.1 mL/well). The cells were incubated at 37° C. and 5% CO2.\n(§3) On day 1, the test articles were diluted and added to cell culture wells (8 concentrations, 4-fold dilution, in duplicate). GLS4, Tenofovir and Sorafenib were used as reference compounds. 100 μL of culture medium containing the compounds was added to the plate, and the final total volume per well was 200 μL. The final concentration of DMSO in the culture medium was 0.5%. The plate map of compound treatment is shown below. The cells were cultured at 37° C. and 5% CO2 for 3 days.\n(§4) On day 4, the plates were refreshed with culture media with compounds.\n(§5) On day 7, cell viability was assessed using the CellTiter-Glo®, and the cell culture supernatants were collected for determination of HBV DNA by qPCR.\n(§6) Extracellular DNA was isolated with QIAamp 96 DNA Blood Kit per the manufacturer's manual. HBV DNA was then quantified by qPCR with HBV specific primers and probes as specified in Table 1 using the FastStart Universal MasterMix from Roche on an ABI-7900HT. The PCR cycle program consisted of 95° C. for 10 min, followed by 40 cycles at 95° C. for 15 sec and 60° C. for 1 min.\n(§7) A DNA standard was prepared by dilution of the pAAV2 HBV1.3 plasmid with concentrations ranging from 10 to 1×10^7 copies/uL and used to generate a standard curve by plotting Ct value vs. the concentration of the HBV plasmid DNA standard. The quantity of HBV DNA in each sample was determined by interpolating from the standard curve.\n(§8) Cell viability was calculated as follows: % Cell viability=(luminescence value of test sample−average luminescence value of blank)/(average luminescence value of 0.5% DMSO control−average luminescence of blank)×100%. HBV DNA inhibition was calculated as follows: 100−(HBV DNA copy number of test sample−HBV DNA copy number of ETV)/HBV DNA copy number of 0.5% DMSO control−HBV DNA copy number of ETV)×100%. The CC50, EC50 and EC90 values were determined by dose-response curves fitted by GraphPad Prism using “log (agonist) vs. response—Variable slope”.", "units": {"EC50": "nM"}}
{"compound": "C#C[C@H](NC(=O)C(=O)c1c(C)c(C(=O)Nc2ccc(F)c(C#N)c2)n(C)c1C)C1COC1", "note": "[Compound 57]", "EC50": "< 1"}
{"tested_on": "HBV", "experiment": "HBV-DNA Antiviral Assay Using HepG2.2.15 Cells (extracellular HBV DNA by qPCR)", "type": "cell-based, hepatitis B virus (HBV)", "conditions": "Hepatitis B virus; HBV DNA inhibition, HepG2.2.15 cells, extracellular HBV DNA by qPCR; read-out: EC50", "experimental": "as §1, §2, §3, §4, §5, §6, §7, §8", "units": {"EC50": "nM"}}
{"compound": "C#CC1(NC(=O)C(=O)c2c(Cl)c(C(=O)Nc3ccc(F)c(C#N)c3)n(C)c2C)CC(F)(F)C1", "note": "[Compound 52, 3-chloro-N-(3-cyano-4-fluoro-phenyl)-4-[2-[(1-ethynyl-3,3-difluoro-cyclobutyl)amino]-2-oxo-acetyl]-1,5-dimethyl-pyrrole-2-carboxamide]", "EC50": "< 1"}
{"compound": "C=CC1(NC(=O)C(=O)c2c(C)c(C(=O)Nc3ccc(F)c(C#N)c3)n(C)c2C)CC(F)(F)C1", "note": "[Compound 53, N-(3-cyano-4-fluoro-phenyl)-4-[2-[(3,3-difluoro-1-vinyl-cyclobutyl)amino]-2-oxo-acetyl]-1,3,5-trimethyl-pyrrole-2-carboxamide]", "EC50": "1 to 10"}
{"compound": "C#CC1(NC(=O)C(=O)c2c(F)c(C(=O)Nc3ccc(F)c(C#N)c3)n(C)c2C)COC1", "note": "[Compound 55, N-(3-cyano-4-fluoro-phenyl)-4-[2-[(3-ethynyloxetan-3-yl)amino]-2-oxo-acetyl]-3-fluoro-1,5-dimethyl-pyrrole-2-carboxamide]", "EC50": "< 1"}
{"compound": "C#CC1(NC(=O)C(=O)c2c(F)c(C(=O)Nc3ccc(F)c(C#N)c3)n(C)c2C)CC(F)(F)C1", "note": "[Compound 56, N-(3-cyano-4-fluoro-phenyl)-4-[2-[(1-ethynyl-3,3-difluoro-cyclobutyl)amino]-2-oxo-acetyl]-3-fluoro-1,5-dimethyl-pyrrole-2-carboxamide]", "EC50": "< 1"}
{"compound": "C#C[C@@H](NC(=O)C(=O)c1c(C)c(C(=O)Nc2ccc(F)c(C#N)c2)n(C)c1C)C1COC1", "note": "[Compound 58, N-(3-cyano-4-fluoro-phenyl)-1,3,5-trimethyl-4-[2-oxo-2-[[(1S)-1-(oxetan-3-yl)prop-2-ynyl]amino]acetyl]pyrrole-2-carboxamide]", "EC50": "1 to 10"}
{"compound": "C#C[C@@H](CCO)NC(=O)C(=O)c1c(C)c(C(=O)Nc2ccc(F)c(C#N)c2)n(C)c1C", "note": "[Compound 61a, N-(3-cyano-4-fluoro-phenyl)-1,3,5-trimethyl-4-[2-oxo-2-[[(1R)-1-(2-hydroxyethyl)prop-2-ynyl]amino]acetyl]pyrrole-2-carboxamide]", "EC50": "1 to 10"}
{"compound": "C#C[C@H](CCO)NC(=O)C(=O)c1c(C)c(C(=O)Nc2ccc(F)c(C#N)c2)n(C)c1C", "note": "[Compound 61b, N-(3-cyano-4-fluoro-phenyl)-1,3,5-trimethyl-4-[2-oxo-2-[[(1S)-1-(2-hydroxyethyl)prop-2-ynyl]amino]acetyl]pyrrole-2-carboxamide]", "EC50": "1 to 10"}
{"compound": "Cc1c(C(=O)C(=O)NC2(C#CC(F)(F)F)CC(O)C2)c(C)n(C)c1C(=O)Nc1ccc(F)c(C#N)c1", "note": "(stereo not drawn) [Compound 62, N-(3-cyano-4-fluoro-phenyl)-4-[2-[[3-hydroxy-1-(3,3,3-trifluoroprop-1-ynyl)cyclobutyl]amino]-2-oxo-acetyl]-1,3,5-trimethyl-pyrrole-2-carboxamide]", "EC50": "100 to 1000"}
{"compound": "C#C[C@](CO)(NC(=O)C(=O)c1c(C)c(C(=O)Nc2ccc(F)c(C#N)c2)n(C)c1C)C1CC1", "note": "[Compound 63a, N-(3-cyano-4-fluoro-phenyl)-1,3,5-trimethyl-4-[2-oxo-2-[[(1R)-1-cyclopropyl-1-(hydroxymethyl)prop-2-ynyl]amino]acetyl]pyrrole-2-carboxamide]", "EC50": "1 to 10"}
{"compound": "C#C[C@@](CO)(NC(=O)C(=O)c1c(C)c(C(=O)Nc2ccc(F)c(C#N)c2)n(C)c1C)C1CC1", "note": "[Compound 63b, N-(3-cyano-4-fluoro-phenyl)-1,3,5-trimethyl-4-[2-oxo-2-[[(1S)-1-cyclopropyl-1-(hydroxymethyl)prop-2-ynyl]amino]acetyl]pyrrole-2-carboxamide]", "EC50": "1 to 10"}
{"compound": "C#C[C@](C)(CO)NC(=O)C(=O)c1c(C)c(C(=O)Nc2ccc(F)c(C#N)c2)n(C)c1C", "note": "[Compound 64a, N-(3-cyano-4-fluoro-phenyl)-1,3,5-trimethyl-4-[2-oxo-2-[[(1R)-1-(hydroxymethyl)-1-methyl-prop-2-ynyl]amino]acetyl]pyrrole-2-carboxamide]", "EC50": "1 to 10"}
{"compound": "C#C[C@@](C)(CO)NC(=O)C(=O)c1c(C)c(C(=O)Nc2ccc(F)c(C#N)c2)n(C)c1C", "note": "[Compound 64b, N-(3-cyano-4-fluoro-phenyl)-1,3,5-trimethyl-4-[2-oxo-2-[[(1S)-1-(hydroxymethyl)-1-methyl-prop-2-ynyl]amino]acetyl]pyrrole-2-carboxamide]", "EC50": "1 to 10"}
{"compound": "C#C[C@](CO)(NC(=O)C(=O)c1c(C)c(C(=O)Nc2ccc(F)c(C(F)(F)F)c2)n(C)c1C)C1CC1", "note": "[Compound 65a, N-[4-fluoro-3-(trifluoromethyl)phenyl]-1,3,5-trimethyl-4-[2-oxo-2-[[(1R)-1-cyclopropyl-1-(hydroxymethyl)prop-2-ynyl]amino]acetyl]pyrrole-2-carboxamide]", "EC50": "< 1"}
{"compound": "C#C[C@@](CO)(NC(=O)C(=O)c1c(C)c(C(=O)Nc2ccc(F)c(C(F)(F)F)c2)n(C)c1C)C1CC1", "note": "[Compound 65b, N-[4-fluoro-3-(trifluoromethyl)phenyl]-1,3,5-trimethyl-4-[2-oxo-2-[[(1S)-1-cyclopropyl-1-(hydroxymethyl)prop-2-ynyl]amino]acetyl]pyrrole-2-carboxamide]", "EC50": "1 to 10"}
{"compound": "C#C[C@](C)(CO)NC(=O)C(=O)c1c(C)c(C(=O)Nc2ccc(F)c(C(F)(F)F)c2)n(C)c1C", "note": "[Compound 66a, (R)—N-(4-fluoro-3-(trifluoromethyl)phenyl)-4-(2-((1-hydroxy-2-methylbut-3-yn-2-yl)amino)-2-oxoacetyl)-1,3,5-trimethyl-1H-pyrrole-2-carboxamide]", "EC50": "< 1"}
{"compound": "C#C[C@@](C)(CO)NC(=O)C(=O)c1c(C)c(C(=O)Nc2ccc(F)c(C(F)(F)F)c2)n(C)c1C", "note": "[Compound 66b, (S)—N-(4-fluoro-3-(trifluoromethyl)phenyl)-4-(2-((1-hydroxy-2-methylbut-3-yn-2-yl)amino)-2-oxoacetyl)-1,3,5-trimethyl-1H-pyrrole-2-carboxamide]", "EC50": "1 to 10"}
{"compound": "C#CC1(NC(=O)C(=O)c2c(C)c(C(=O)Nc3ccnc(F)c3Br)n(C)c2C)COC1", "note": "[Compound 67, N-(3-bromo-2-fluoro-4-pyridyl)-4-[2-[(3-ethynyloxetan-3-yl)amino]-2-oxo-acetyl]-1,3,5-trimethyl-pyrrole-2-carboxamide]", "EC50": "10 to 100"}
{"compound": "C#CC1(NC(=O)C(=O)c2c(C)c(C(=O)Nc3ccnc(F)c3Br)n(C)c2C)CC(F)(F)C1", "note": "[Compound 68, N-(3-bromo-2-fluoro-4-pyridyl)-4-[2-[(1-ethynyl-3,3-difluoro-cyclobutyl)amino]-2-oxo-acetyl]-1,3,5-trimethyl-pyrrole-2-carboxamide]", "EC50": "< 1"}
{"compound": "C=C[C@](C)(CO)NC(=O)C(=O)c1c(C)c(C(=O)Nc2ccc(F)c(C(F)(F)F)c2)n(C)c1C", "note": "[Compound 69a, N-[4-fluoro-3-(trifluoromethyl)phenyl]-1,3,5-trimethyl-4-[2-oxo-2-[[(1R)-1-(hydroxymethyl)-1-methyl-allyl]amino]acetyl]pyrrole-2-carboxamide]", "EC50": "1 to 10"}
{"compound": "C=C[C@@](C)(CO)NC(=O)C(=O)c1c(C)c(C(=O)Nc2ccc(F)c(C(F)(F)F)c2)n(C)c1C", "note": "[Compound 69b, N-[4-fluoro-3-(trifluoromethyl)phenyl]-1,3,5-trimethyl-4-[2-oxo-2-[[(1S)-1-(hydroxymethyl)-1-methyl-allyl]amino]acetyl]pyrrole-2-carboxamide]", "EC50": "1 to 10"}
{"compound": "Cc1c(C(=O)C(=O)NC(C)(C)c2cnn(C)c2)c(C)n(C)c1C(=O)Nc1ccc(F)c(C#N)c1", "note": "[Compound 70, N-(3-cyano-4-fluoro-phenyl)-1,3,5-trimethyl-4-[2-[[1-methyl-1-(1-methylpyrazol-4-yl)ethyl]amino]-2-oxo-acetyl]pyrrole-2-carboxamide]", "EC50": "1 to 10"}
{"compound": "C#C[C@](CO)(NC(=O)C(=O)c1c(C)c(C(=O)Nc2ccc(F)c(C#N)c2)n(C)c1C)C(F)(F)F", "note": "[Compound 71a, N-(3-cyano-4-fluoro-phenyl)-1,3,5-trimethyl-4-[2-oxo-2-[[(1R)-1-(hydroxymethyl)-1-(trifluoromethyl)prop-2-ynyl]amino]acetyl]pyrrole-2-carboxamide]", "EC50": "1 to 10"}
{"compound": "C#C[C@@](CO)(NC(=O)C(=O)c1c(C)c(C(=O)Nc2ccc(F)c(C#N)c2)n(C)c1C)C(F)(F)F", "note": "[Compound 71b, N-(3-cyano-4-fluoro-phenyl)-1,3,5-trimethyl-4-[2-oxo-2-[[(1S)-1-(hydroxymethyl)-1-(trifluoromethyl)prop-2-ynyl]amino]acetyl]pyrrole-2-carboxamide]", "EC50": "1 to 10"}
